Experimental findings from patent US20220402948A1, “EGFR INHIBITOR, COMPOSITION AND PREPARATION METHOD THEREFOR” (BETTA PHARMACEUTICALS CO., LTD., priority 2019, published 2022) are described below.

Assay [1] concerns the target Ba/F3 cells with EGFR Δ19del/T790M/C797S mutation gene stably overexpressed (Homo sapiens, UniProt P00533, T790M/C797S, cells depend on it, form not given). Nature of the assay: Ba/F3-Δ19del/T790M/C797S cell proliferation assay (CellTiter Glo, 72 hours). It is filed as cell-based. The settings on record: Table 2, read-out: EGFR Δ19del/T790M/C797S IC50. How it is done:
(§1) Cell line: Ba/F3 cells with EGFR Δ19del/T790M/C797S mutation gene stably overexpressed named Ba/F3-Δ119del/T90M/C797S, and A431 and Ba/F3-EGFR wild-type cell line.
(§2) a) Centrifuge the growth cells in logarithmic phase at 1000 rpm for 5 minutes, resuspend the cells in culture medium, and then count the cells;
(§3) b) Inoculate the cells into a 96-well cell culture plate with a density of 2000 cells/well;
(§4) b) Incubate cells in an incubator for another 72 hours.
(§5) a) Take out the 96-well cell culture plate and add 50 μl CTG reagent (CellTiter Glo kit, promega, Cat #G7573);
(§6) b) Shake the plate for 2 minutes and let cool at room temperature for 10 minutes;
(§7) c) Read luminous signal value with PerkinElmer reader,
(§8) Analysis of Experimental Data
(§9) The data were analyzed by GraphPad Prism 6.0 software to obtain the fitting curve of compound activity.
(§10) Y=Min+(Max−Min)/(1+10^((Log IC50−X)*slope));
(§11) X: Logarithm of compound concentration; Y: luminous signal.

Another assay concerns A431. Nature of the assay: A431 cell proliferation assay (CellTiter Glo, 72 hours). It is filed as cell-based. As to conditions: cell proliferation, A431, 72 hours, Table 2, read-out: A431 IC50. How it is done: as §1
RPMI 1640 and 10% FBS and 1% PS; DMEM and 10% FBS and 1% PS.
a) Dilute the test compound (20 mM stock solution) to 10 mM with 100% DMSO as the starting concentration, and then serially dilute 3 times with a “9+0” concentration in 96-well dilution plate (Cat #P-05525, Labcyte);
b) Dilute compound solution thereof to 1:100 (1:20 for comparative compound 1 and compounds 1-38) in medium to prepare 10-fold working solution;
as §2, §3
a) Compounds prepared at step 2 were added to cell plate with 15 μl per well, the final concentrations were 1000, 333, 111.1, 37, 12.3, 4.1, 1.4, 0.5, 0.2 and 0 nM, and the final concentration of DMSO was 0.1%. The blank control well was a culture medium (0.1% DMSO) (the blank control well of comparative compound 1 and compounds 1-38 was a culture medium (0.5% DMSO).
as §4, §5, §6, §7, §8, §9
Fitting compound IC50 from nonlinear regression equation:
as §10, §11

A further assay has as its target EGFRΔ19del/T790M/C797S (Homo sapiens, UniProt P00533, T790M/C797S, form not given). The assay is described as follows: EGFR Δ19del/T790M/C797S kinase test (mobility variation analysis, Caliper EZ Reader). It is filed as biochemical. As to conditions: kinase enzymatic activity, Table 1. The essentials:
(§12)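 Kinase pre-incubated with compound 10 minutes at room temperature, then ATP plus peptide substrate added; substrate conversion read by mobility shift after stop solution. Percent inhibition normalized to no-compound and no-enzyme controls; IC50 from variable-slope log(inhibitor) fit.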

The target of the next assay is IGF1R (Homo sapiens, UniProt P08069). Nature of the assay: IGF1R kinase test (mobility variation analysis, Caliper EZ Reader). As to conditions: kinase enzymatic activity, Table 1; read-out: EGFR IGF1R IC50. It is filed as biochemical. The essentials: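 Kinase preincubated 10 min at room temperature with compound (10-point 3-fold series, top 3000 nM), then ATP and substrate added and reacted at room temperature. Substrate conversion read by mobility-shift (Caliper EZ Reader); % inhibition vs no-enzyme and no-compound controls fitted to variable-slope curve for IC50.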

For the next assay, the target named is EGFR WT (Homo sapiens, UniProt P00533). Nature of the assay: EGFR WT kinase test (mobility variation analysis, Caliper EZ Reader). Type of assay: biochemical. The settings on record: kinase enzymatic activity, Table 1. In outline:
as §12

Like-named read-outs stand apart in the source and are kept apart here.

Sequence of IGF1R (P08069 31-1367, species assumed): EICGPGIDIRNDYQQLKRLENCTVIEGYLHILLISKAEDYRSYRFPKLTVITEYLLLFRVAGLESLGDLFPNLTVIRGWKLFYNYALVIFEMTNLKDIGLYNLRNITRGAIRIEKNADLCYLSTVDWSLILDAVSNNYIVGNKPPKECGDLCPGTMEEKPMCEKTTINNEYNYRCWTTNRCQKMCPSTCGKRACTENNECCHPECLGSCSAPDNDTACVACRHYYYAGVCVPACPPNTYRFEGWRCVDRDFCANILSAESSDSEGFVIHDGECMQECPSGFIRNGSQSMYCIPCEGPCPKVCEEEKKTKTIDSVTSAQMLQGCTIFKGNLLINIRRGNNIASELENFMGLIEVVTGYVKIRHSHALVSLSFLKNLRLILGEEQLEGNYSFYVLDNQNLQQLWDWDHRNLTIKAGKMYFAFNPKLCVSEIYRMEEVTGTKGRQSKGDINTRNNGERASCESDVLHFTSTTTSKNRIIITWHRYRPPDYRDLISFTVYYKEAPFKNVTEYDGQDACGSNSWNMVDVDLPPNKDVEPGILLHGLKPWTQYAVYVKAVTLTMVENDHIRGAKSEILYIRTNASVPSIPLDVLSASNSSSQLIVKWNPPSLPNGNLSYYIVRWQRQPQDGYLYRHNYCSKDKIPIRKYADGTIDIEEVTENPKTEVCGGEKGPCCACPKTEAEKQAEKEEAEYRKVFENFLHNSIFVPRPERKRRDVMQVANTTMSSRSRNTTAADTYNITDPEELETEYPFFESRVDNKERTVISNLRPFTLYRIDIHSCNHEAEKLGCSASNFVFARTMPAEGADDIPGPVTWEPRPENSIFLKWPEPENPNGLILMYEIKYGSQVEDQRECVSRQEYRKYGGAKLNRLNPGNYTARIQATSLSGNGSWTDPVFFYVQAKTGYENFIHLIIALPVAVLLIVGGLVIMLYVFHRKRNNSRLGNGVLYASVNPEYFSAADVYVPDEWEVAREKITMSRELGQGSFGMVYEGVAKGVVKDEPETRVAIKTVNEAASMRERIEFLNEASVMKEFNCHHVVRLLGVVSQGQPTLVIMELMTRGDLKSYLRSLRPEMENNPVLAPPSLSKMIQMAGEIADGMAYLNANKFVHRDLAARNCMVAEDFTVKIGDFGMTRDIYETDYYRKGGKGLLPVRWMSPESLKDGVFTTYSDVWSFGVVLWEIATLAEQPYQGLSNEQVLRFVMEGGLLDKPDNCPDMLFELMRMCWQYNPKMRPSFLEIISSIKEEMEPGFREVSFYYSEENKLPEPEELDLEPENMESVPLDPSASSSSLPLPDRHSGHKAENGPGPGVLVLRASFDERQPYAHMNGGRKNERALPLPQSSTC

For `CCc1cc(Nc2ncc(Cl)c(Nc3ccc(-c4nccc(OC)n4)cc3P(C)(C)=O)n2)c(OC)cc1N1CCC(N2CCN(C)CC2)CC1` [Compound 19, (2-((5-Chloro-2-((5-ethyl-2-methoxy-4-(4-(4-methylpiperazin-1-yl)piperidin-1-yl)phenyl)amino)pyrimidin-4-yl)amino)-5-(4-methoxypyrimidin-2-yl)phenyl)dimethylphosphine oxide], the GI50 in assay [1] stood at 29.6 nM. Further, the IC50 in the assay with A431 (Homo sapiens, A-431, 72 h) stood at 864 nM; at EGFRΔ19del/T790M/C797S it was 0.6 nM; at IGF1R it was 144 nM; at EGFR WT, 22 nM.

On to `CCc1cc(Nc2ncc(Br)c(Nc3ccc(-c4ncc(OC)cn4)cc3P(C)(C)=O)n2)c(OC)cc1N1CCC(N2CCN(C)CC2)CC1` [Compound 30], for which the GI50 in assay [1] came out at 15.2 nM. Besides, the IC50 in the assay on A431 (Homo sapiens, A-431, 72 h) came to 8870 nM; on EGFRΔ19del/T790M/C797S, 0.2 nM; on IGF1R it was 118 nM; at EGFR WT, 20.7 nM.

Take `CCc1cc(Nc2ncc(Br)c(Nc3ccc(-c4nccs4)cc3P(C)(C)=O)n2)c(OC)cc1N1CCC(N2CCN(C)CC2)CC1` [Compound 12, (2-((5-Bromo-2-((5-ethyl-2-methoxy-4-(4-(4-methylpiperazin-1-yl)piperidin-1-yl)phenyl)amino)pyrimidin-4-yl)amino)-5-(thiazol-2-yl)phenyl)dimethylphosphine oxide]: the GI50 in assay [1] was found to be 10.7 nM. Also, the IC50 with A431 (Homo sapiens, A-431, 72 h) stood at 989 nM; against EGFRΔ19del/T790M/C797S it was 1.1 nM; at IGF1R, 310 nM; on EGFR WT it was 13 nM.

On to `CCc1cc(Nc2ncc(Br)c(Nc3ccc(-c4ccc(C5CC5)nn4)cc3P(C)(C)=O)n2)c(OC)cc1N1CCC(N2CCN(C)CC2)CC1` [Compound 36, (2-((5-Bromo-2-((5-ethyl-2-methoxy-4-(4-(4-methylpiperazin-1-yl)piperidin-1-yl)phenyl)amino)pyrimidin-4-yl)amino)-5-(6-cyclopropylpyridazin-3-yl)phenyl)dimethylphosphine oxide], for which the GI50 in assay [1] worked out at 22.3 nM. Moreover, the IC50 in the assay on A431 (Homo sapiens, A-431, 72 h) was found to be 4640 nM; against EGFRΔ19del/T790M/C797S, 0.2 nM; on IGF1R it was 219 nM; against EGFR WT it was 35.5 nM.

“(2-((5-Bromo-2-((5-ethyl-2-methoxy-4-(4-(4-methylpiperazin-1-yl)piperidin-1-yl)phenyl)amino]amino]pyrimidin-4-yl)amino)-5-(4-methoxy-1H-pyrazol-1-yl)phenyl)dimethylphosphine oxide [Compound 50]”: the GI50 in assay [1] stood at 19.1 nM. The IC50 with A431 came out at 1510 nM; on EGFRΔ19del/T790M/C797S, 0.2 nM; at IGF1R, 268 nM; on EGFR WT, 32 nM.

Turning to `CCc1cc(Nc2ncc(Br)c(Nc3ccc(-c4ccc(C)cn4)cc3P(C)(C)=O)n2)c(OC)cc1N1CCC(N2CCN(C)CC2)CC1` [Compound 83, (2-((5-Bromo-2-((5-ethyl-2-methoxy-4-(4-(4-methylpiperazin-1-yl)piperidin-1-yl)phenyl)amino)pyrimidin-4-yl)amino)-5-(5-methylpyridin-2-yl)phenyl)dimethylphosphine oxide], the GI50 in assay [1] was 20.1 nM. Further, the IC50 in the assay with A431 (Homo sapiens, A-431, 72 h) stood at 1430 nM; at EGFRΔ19del/T790M/C797S, 0.3 nM; at IGF1R, 180 nM; against EGFR WT it was 29.4 nM.

Regarding `CCc1cc(Nc2ncc(Br)c(Nc3ccc(-c4cncnc4)cc3P(C)(C)=O)n2)c(OC)cc1N1CCC(N2CCN(C)CC2)CC1` [Compound 22, (2-((5-Bromo-2-((5-ethyl-2-methoxy-4-(4-(4-methylpiperazin-1-yl)piperidin-1-yl)phenyl)amino)pyrimidin-4-yl)amino)-5-(pyrimidin-5-yl)phenyl)dimethylphosphine oxide], the GI50 in assay [1] turned out to be 20.5 nM. For the same molecule, the IC50 came out at 831 nM in the assay with A431 (Homo sapiens, A-431, 72 h); 0.3 nM against EGFRΔ19del/T790M/C797S; 120 nM at IGF1R; 40.8 nM against EGFR WT.

Take `CCc1cc(Nc2ncc(Br)c(Nc3ccc(-n4cc(C)cn4)cc3P(C)(C)=O)n2)c(OC)cc1N1CCC(N2CCN(C)CC2)CC1` [Compound 86, (2-((5-Bromo-2-((5-ethyl-2-methoxy-4-(4-(4-methylpiperazin-1-yl)piperidin-1-yl)phenyl)amino)pyrimidin-4-yl)amino)-5-(4-methyl-1H-pyrazol-1-yl)phenyl)dimethylphosphine oxide]: the GI50 in assay [1] was found to be 37.4 nM. Also, the IC50 with A431 (Homo sapiens, A-431, 72 h) is 1610 nM; on EGFRΔ19del/T790M/C797S, 0.7 nM; on IGF1R, 219 nM; against EGFR WT, 26.7 nM.

Turning to `CCc1cc(Nc2ncc(Br)c(Nc3ccc(-c4cnc(N(C)C)nc4)cc3P(C)(C)=O)n2)c(OC)cc1N1CCC(N2CCN(C)CC2)CC1` [Compound 74, (2-((5-Bromo-2-((5-ethyl-2-methoxy-4-(4-(4-methylpiperazin-1-yl)piperidin-1-yl)phenyl)amino)pyrimidin-4-yl)amino)-5-(2-(dimethylamino)pyrimidin-5-yl)phenyl)dimethylphosphine oxide], the GI50 in assay [1] stood at 15.7 nM. In addition, the IC50 in the assay with A431 (Homo sapiens, A-431, 72 h) was 1560 nM; against EGFRΔ19del/T790M/C797S, 0.3 nM; on IGF1R, 186 nM; on EGFR WT, 24 nM.

With `CCc1cc(Nc2ncc(Br)c(Nc3ccc(-c4ccc(F)cc4F)cc3P(C)(C)=O)n2)c(OC)cc1N1CCC(N2CCN(C)CC2)CC1` [Compound 6, (4-((5-Bromo-2-((5-ethyl-2-methoxy-4-(4-(4-methylpiperazin-1-yl)piperidin-1-yl)phenyl)amino)pyrimidin-4-yl)amino)-2′,4′-difluoro-[1,1′-biphenyl]-3-yl)dimethylphosphine oxide], the GI50 in assay [1] turned out to be 21.4 nM. In addition, the IC50 was above 10000 nM with A431 (Homo sapiens, A-431, 72 h); 0.9 nM against EGFRΔ19del/T790M/C797S; 147 nM on IGF1R; 16.7 nM on EGFR WT.

In the case of `CCc1cc(Nc2ncc(Br)c(Nc3ccc(-c4cn(C)nc4C#N)cc3P(C)(C)=O)n2)c(OC)cc1N1CCC(N2CCN(C)CC2)CC1` [Compound 64, 4-(4-((5-Bromo-2-((5-ethyl-2-methoxy-4-(4-(4-methylpiperazin-1-yl)piperidin-1-yl)phenyl)amino]pyrimidin-4-yl)amino)-3-(dimethylphosphoryl)phenyl)-1-methyl-1H-pyrazole-3-carbonitrile], the GI50 in assay [1] was determined as 47.3 nM. For the same molecule, the IC50 in the assay on A431 (Homo sapiens, A-431, 72 h) is above 10000 nM; against EGFRΔ19del/T790M/C797S it was 0.8 nM; on IGF1R it was 330 nM; on EGFR WT, 43.1 nM.

Consider `CCc1cc(Nc2ncc(Br)c(Nc3ccc(-c4cnc(C)c(C)n4)cc3P(C)(C)=O)n2)c(OC)cc1N1CCC(N2CCN(C)CC2)CC1` [Compound 81, (2-((5-Bromo-2-((5-ethyl-2-methoxy-4-(4-(4-methylpiperazin-1-yl)piperidin-1-yl)phenyl)amino)pyrimidin-4-yl)amino)-5-(5,6-dimethylpyrazin-2-yl)phenyl)dimethylphosphine oxide], for which, in assay [1], the GI50 came to 16.8 nM. The 50% inhibitory concentration (IC50) turned out to be 875 nM in the assay with A431 (Homo sapiens, A-431, 72 h); 0.6 nM at EGFRΔ19del/T790M/C797S; 142 nM on IGF1R; 12.6 nM on EGFR WT.

Take `CCc1cc(Nc2ncc(Br)c(Nc3ccc(-c4cn(C)nc4OC)cc3P(C)(C)=O)n2)c(OC)cc1N1CCC(N2CCN(C)CC2)CC1` [Compound 63]: in assay [1], the GI50 came out at 24.5 nM. The IC50 in the assay on A431 (Homo sapiens, A-431, 72 h) stood at 512 nM; on EGFRΔ19del/T790M/C797S, 1.3 nM; at IGF1R, 335 nM; on EGFR WT it was 38.8 nM.

For the molecule `CCc1cc(Nc2ncc(Cl)c(Nc3ccc(-c4ccc5ocnc5c4)cc3P(C)(C)=O)n2)c(OC)cc1N1CCC(N2CCN(C)CC2)CC1` [Compound 17, (5-(Benzo[d]oxazol-5-yl)-2-((5-chloro-2-((5-ethyl-2-methoxy-4-(4-(4-methylpiperazin-1-yl)piperidin-1-yl)phenyl)amino)pyrimidin-4-yl)amino)phenyl)dimethylphosphine oxide], the GI50 in assay [1] came to 30 nM. The IC50 in the assay with A431 (Homo sapiens, A-431, 72 h) was 2200 nM; on EGFRΔ19del/T790M/C797S, 0.7 nM; at IGF1R, 363 nM; against EGFR WT, 20.1 nM.
